Reference: patent US6808909B2, “Thermostable phytase with 2.1 Å . . . crystal structure” (Korea Research Institute of Bioscience and Biotechnology, priority 2000, dated 2004)

Target: T1, phytase derived from B. amyloliquefaciens DS-11 (Bacillus sp., UniProt O66037)
T1 construct: made in house; host or cells: Bacillus subtilis DB104/pJPK
Test: Activity of the phytase on phytate and myo-inositol monophosphate substrates
Type: biochemical
Conditions: 2 mM substrate, 37° C. for 15 min, 20 mM Tris/HCl (pH7.0) buffer; relative to phytate = 100
Protocol: The activities of the phytase derived from B. amyloliquefaciens DS11 were measured on its 2 mM substrates of myo-inositol, hexaphosphate, mio-inositol 1-monophosphate, mio-inositol 2-monophosphate, myo-inositol 4-monophosphate, after incubating at 37° C. for 15 min in a 20 mM Tris/HCl (pH7.0) buffer.

T1 sequence (O66037 31-383): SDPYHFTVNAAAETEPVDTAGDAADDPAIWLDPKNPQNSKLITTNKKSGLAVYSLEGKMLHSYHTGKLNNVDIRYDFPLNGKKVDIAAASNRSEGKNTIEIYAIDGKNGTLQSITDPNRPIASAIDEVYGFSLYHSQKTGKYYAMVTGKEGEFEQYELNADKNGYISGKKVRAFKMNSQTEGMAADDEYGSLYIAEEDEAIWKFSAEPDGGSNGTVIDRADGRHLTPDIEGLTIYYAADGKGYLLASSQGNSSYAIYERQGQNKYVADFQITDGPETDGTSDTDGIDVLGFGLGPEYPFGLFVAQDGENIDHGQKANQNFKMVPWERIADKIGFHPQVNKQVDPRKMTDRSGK

Q: Which “Relative Enzyme Activity (%)” value does the source give for `O=P(O)(O)OC1[C@H](O)[C@H](O)C(O)[C@H](O)[C@H]1O` (stereo partly shown) [1′-monophosphoinositol, mio-inositol 1-monophosphate] here?
A: 27%

Q: How did the “Relative Enzyme Activity (%)” value turn out when `O=P(O)(O)OC1[C@@H](O)[C@H](O)C(O)[C@H](O)[C@H]1O` (stereo partly shown) [2′-monophosphoinositol, mio-inositol 2-monophosphate] was run?
A: 28%

Q: `O=P(O)(O)OC1[C@@H](O)[C@@H](O)C(O)[C@H](O)[C@H]1O` (stereo partly shown) [4′-monophosphoinositol, myo-inositol 4-monophosphate] was tested. Which “Relative Enzyme Activity (%)” value did it give?
A: 40%

Q: Which “Relative Enzyme Activity (%)” value does the source give for `O=P(O)(O)O[C@H]1[C@H](OP(=O)(O)O)[C@@H](OP(=O)(O)O)[C@H](OP(=O)(O)O)[C@@H](OP(=O)(O)O)[C@H]1OP(=O)(O)O` [Phytate, myo-inositol, hexaphosphate] here?
A: 100%
